In patent publication US20030083385A1, “Use of benzenesulfonyl (thioureas or ure as) for treating of septic shock or gene ralized inflammatory syndrome” (priority 2001, published 2003):
Structures can show the parent of a compound that is named as a salt.

Tests used:
[1] = tested on: anesthetized pigs given lipopolysaccharide (LPS) as a bolus; test: Endotoxin (LPS) model in anesthetized pigs, LPS bolus; format: in vivo, pig; conditions: LPS 1 μg/kg bolus, n=5, LPS raised pressure from 30.6±0.7 to 67.2±6.0 mm Hg, compound 5 mg/kg intravenously, p<0.01
Source text: (§1) The suitability of a compound of formula I for treating pathological changes in blood pressure associated with septic shock or occurring in the generalized inflammatory syndrome (SIRS) state can be established, for example, in the pharmacological model in the pig that is described further below (endotoxin model, synonym: LPS model (LPS=lipopolysaccharide)). The effect can also be examined, for example, in rats, mice, cats, guinea pigs, rabbits, dogs or monkeys.
In another experimental approach performed on anesthetized pigs, 1 μg/kg of LPS was administered as a bolus (n=5). This led, within 15-20 min, to a dangerous increase in the systolic pulmonary arterial pressure from 30.6±0.7 mm Hg to 67.2±6.0 mm Hg.

[2] = tested on: anesthetized pigs infused continuously with lipopolysaccharide (LPS); test: Endotoxin (LPS) model in anesthetized pigs, continuous LPS infusion; format: in vivo, pig
Source text: as §1
Anesthetized pigs were infused continuously with lipopolysaccharide (LPS) (0.15 μg/kg/h; n=7). This led to a decrease in the peripheral resistance. After 3.9 hours, 1-(5-(2-(5-chloro-2-methoxybenzamido)ethyl)-2-(2-methoxyethoxy)phenyl-sulfonyl)-3-methylthiourea sodium salt was administered at a dose of 5-10 mg/kg (intravenously; aqueous solution). […] The peripheral resistance, which under the effect of the endotoxin had fallen to 60.8±4.1% of the starting value that had been present prior to administering the endotoxin, rose to 80.8±5.1% of the starting value that had been present prior to administering the endotoxin (p<0.0001).

**Q.** For `CNC(=S)NS(=O)(=O)c1cc(CCNC(=O)c2cc(Cl)ccc2OC)ccc1OCCOC` [1-(5-(2-(5-chloro-2-methoxybenzamido)ethyl)-2-(2-methoxyethoxy)phenyl-sulfonyl)-3-methylthiourea sodium salt], which “systolic pulmonary arterial pressure after administration” value [1] is on record?
**A.** The value was 46.6±4.0 mm Hg.

**Q.** What about the “rise of peripheral mean arterial blood pressure” value ([2]; LPS 0.15 μg/kg/h continuous infusion, n=7, compound 5-10 mg/kg intravenously (aqueous solution) after 3.9 hours, p<0.001) of the same compound?
**A.** Its value is 19.6±3.2 mm Hg.

**Q.** And the “peripheral resistance after administration” value ([2]; LPS 0.15 μg/kg/h continuous infusion, n=7, compound 5-10 mg/kg intravenously after 3.9 hours, had fallen to 60.8±4.1% under endotoxin, p<0.0001)?
**A.** Its value is 80.8±5.1 % of the starting value.

**Q.** What about the “effect when administered as an infusion” value ([2]; LPS model, infusion, total dose 5-10 mg/kg, seen already after a dose of 1-2.5 mg/kg had been infused) of the same compound?
**A.** Its value is “marked improvement”.
